In US9670514B2, “Method for producing polysaccharide” (SANYO CHEMICAL INDUSTRIES, LTD., priority 2011, dated 2017) one finds Km data, which are given here for 1 compound.

Experiment [1] concerns nucleoside diphosphate kinase. In words: Michaelis constant Km of uridine triphosphate synthesis using. Type of experiment: biochemical, rat. The settings on record: uridine diphosphate as substrate, adenosine triphosphate as phosphate donor, 30° C., Hanes-Woolf plot. The protocol:
The Michaelis constant Km can be determined through determination of the dependence of the initial enzyme reaction velocity on the substrate concentration in accordance with the method reported by Agarwal et al. (described in Methods of Enzymology, 1978, Vol. 51, pp. 483-491). (D4-1) in a purified form is used for the measurement of the Michaelis constant Km. The inhibitory concentration IC50 is determined by the method described above. […]
(D4-1-2) obtained in Preparation 8 was dissolved in 890 μL of aqueous solution 7 (50 mM phosphate buffer (pH of 7.5, 25° C.) containing 5 mM magnesium chloride and 100 mM adenosine triphosphate (available from Sigma-Aldrich Corporation)) in a 1.5 mL-tube. […] The supernatant (80 μL) was analyzed by HPLC, and the peak areas of uridine triphosphate were recorded.
Solutions were prepared by changing the molar concentration of sodium uridine diphosphate in substrate solution [2-1] to 5 mM (substrate solution [2-2]), 2 mM (substrate solution [2-3]), 1 mM (substrate solution [2-4]), and 0.3 mM (substrate solution [2-5]). […] The peak areas of uridine triphosphate were recorded for enzyme reaction solutions (IV-2-2) to (IV-2-5) in a similar manner for enzyme reaction solution (IV-2-1). […]

Another experiment has as its system arginine kinase. The experiment can be described thus: Michaelis constant Km of uridine triphosphate synthesis using arginine kinase. Type of experiment: biochemical, Toxoplasma gondii. As to conditions: uridine diphosphate as substrate, ω-phosphono-L-arginine as phosphate donor. The protocol:
Arginine kinase aqueous solution (D4-1-3) was obtained in a similar manner as in Preparation 1, except that a “gene encoding the amino acid sequence of SEQ ID NO: 9 derived from Toxoplasma gondii” was used in place of the “gene encoding the amino acid sequence of SEQ ID NO: 1 derived from Streptococcus equisimilis”.
The tube was allowed to stand at 30° C. for 3 minutes in a constant temperature water bath. To the tube was added 100 μL of temperature-adjusted (30° C.) substrate solution [2-1] (a solution obtained by dissolving sodium uridine diphosphate to a concentration of 10 mM in buffer solution B). Thereby, enzyme reaction solution (IV-2-1) was obtained. A portion (100 μL) of (IV-2-1) was extracted immediately after preparation and at 1-minute intervals. The extracted portions were heated at 100° C. for 2 minutes to stop the enzyme reaction, and centrifuged using a centrifuge (4° C., 12,000×g, 10 min) to precipitate impurities. The supernatant (80 μL) was analyzed by HPLC, and the peak areas of uridine triphosphate were recorded.
A Hanes-Woolf plot was constructed using the calculated initial enzyme reaction velocity v, with the horizontal axis (x-axis) plotting each substrate concentration [S], and the vertical axis (y-axis) plotting the […] of the initial enzyme reaction velocity at each substrate concentration. […]

One may read the Km as the concentration of substrate that gives half-maximal velocity. Consider `O=c1ccn([C@@H]2O[C@H](COP(=O)(O)OP(=O)(O)O)[C@@H](O)[C@H]2O)c(=O)[nH]1` [uridine diphosphate], for which the Michaelis constant (Km) amounted to 250 µM in experiment [1] and 710 µM in the experiment with arginine kinase.
